Experimental data: PubChem BioAssay (NCI)
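A five-concentration, 48-hour dose response in 96-well plates underlies each endpoint, interpolated linearly between surrounding concentrations. TGI: total growth inhibition.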

Columns and labels:
Assay in all cases: inhibition of tumour cell growth, NCI panel, 48 h
[1] = tested on: OVCAR-4 ovarian
[2] = tested on: SK-MEL-5 melanoma
[3] = tested on: SW-620 colon
[4] = tested on: OVCAR-8 ovarian
[5] = tested on: HL-60(TB) leukemia
[6] = tested on: EKVX NSCLC
[7] = tested on: HOP-92 NSCLC
[8] = tested on: T-47D breast
[9] = tested on: HS 578T breast
[10] = tested on: PC-3 prostate

CC1=C[P+](c2ccccc2)(c2ccccc2)c2ccccc2O1
TGI [1]: > 100 µM
TGI [2]: 13.5 µM
TGI [3]: > 100 µM
TGI [4]: > 100 µM
TGI [5]: 8.76 µM
TGI [6]: > 100 µM
TGI [7]: 9.34 µM
TGI [8]: 7.79 µM
TGI [9]: 11.6 µM
TGI [10]: 17.1 µM

COC(=O)[C@@]12CSC[C@]1(C(=O)OC)N[C@@H](c1ccccc1O)C2
TGI [1]: > 100 µM
TGI [2]: > 100 µM
TGI [3]: > 100 µM
TGI [4]: > 100 µM
TGI [5]: > 100 µM
TGI [6]: > 100 µM
TGI [7]: > 100 µM
TGI [8]: > 100 µM
TGI [9]: > 100 µM
TGI [10]: > 100 µM

CC1OC(NCCNCCNC2OC(C)C(O)C(O)C2O)C(O)C(O)C1O (stereo not given)
TGI [1]: > 100 µM
TGI [2]: > 100 µM
TGI [3]: > 100 µM
TGI [4]: > 100 µM
TGI [5]: > 100 µM
TGI [6]: > 100 µM
TGI [7]: > 100 µM
TGI [8]: > 100 µM
TGI [9]: > 100 µM
TGI [10]: > 100 µM

C(=N\NC1=NCCCCN1)/c1ccc2ccccc2c1
TGI [1]: > 100 µM
TGI [2]: 31.3 µM
TGI [3]: 52.4 µM
TGI [4]: > 100 µM
TGI [5]: 62.8 µM
TGI [6]: > 100 µM
TGI [7]: 62.7 µM
TGI [8]: 62 µM
TGI [9]: > 100 µM
TGI [10]: > 100 µM

CCOC(CBr)OC1C(=O)OCC1(C)C (stereo not given)
TGI [1]: > 100 µM
TGI [2]: > 100 µM
TGI [3]: > 100 µM
TGI [4]: > 100 µM
TGI [5]: > 100 µM
TGI [6]: > 100 µM
TGI [7]: > 100 µM
TGI [8]: > 100 µM
TGI [9]: > 100 µM
TGI [10]: > 100 µM

CC(=O)C1=C(C)N(c2ccccc2)C2(O)C3=C(C(=O)c4ccccc4C3=O)C(O)=CC12Cl (stereo not given)
TGI [1]: 14.5 µM
TGI [2]: 9.04 µM
TGI [3]: > 100 µM
TGI [4]: > 100 µM
TGI [5]: 49 µM
TGI [6]: > 100 µM
TGI [7]: 30 µM
TGI [8]: > 100 µM
TGI [9]: 15.2 µM
TGI [10]: 46.5 µM

CC(C)(C)OC(=O)NC(CSCc1ccc(C(=O)c2ccccc2)cc1)C(=O)N1CCN(CCCCN2c3ccccc3Sc3cc(N=[N+]=[N-])ccc32)CC1 (stereo not given)
TGI [1]: > 100 µM
TGI [2]: > 100 µM
TGI [3]: > 100 µM
TGI [4]: > 100 µM
TGI [5]: > 100 µM
TGI [6]: > 100 µM
TGI [7]: > 100 µM
TGI [8]: > 100 µM
TGI [9]: > 100 µM
TGI [10]: > 100 µM

Cc1ccc([N+](=O)[O-])cc1S(=O)(=O)Nc1ccc(C2=NN(S(=O)(=O)c3cc([N+](=O)[O-])ccc3C)C(c3cccs3)C2)cc1 (stereo not given)
TGI [1]: > 100 µM
TGI [2]: > 100 µM
TGI [3]: > 100 µM
TGI [4]: > 100 µM
TGI [5]: > 100 µM
TGI [6]: > 100 µM
TGI [7]: > 100 µM
TGI [8]: > 100 µM
TGI [9]: 53.7 µM
TGI [10]: > 100 µM

C/C(Cc1ccc2c(c1)OCO2)=N\N=c1\sc2ccccc2n1C
TGI [1]: > 100 µM
TGI [2]: > 100 µM
TGI [3]: > 100 µM
TGI [4]: > 100 µM
TGI [5]: > 100 µM
TGI [6]: > 100 µM
TGI [7]: > 100 µM
TGI [8]: > 100 µM
TGI [9]: > 100 µM
TGI [10]: > 100 µM

CCC1(O)C(=O)OCc2c1cc1n(c2=O)Cc2cc3cc4c(cc3nc2-1)OCO4 (stereo not given)
TGI [1]: 1.49 µM
TGI [2]: 0.02 µM
TGI [3]: 18.7 µM
TGI [4]: 1.29 µM
TGI [5]: 0.479 µM
TGI [6]: 4.27 µM
TGI [7]: 0.6 µM
TGI [8]: > 100 µM
TGI [9]: > 100 µM
TGI [10]: > 100 µM

N=C1OC(CN2CCN(c3ccccc3)CC2)CN1C(=O)Nc1ccccc1 (stereo not given)
TGI [1]: > 100 µM
TGI [2]: > 100 µM
TGI [3]: > 100 µM
TGI [4]: > 100 µM
TGI [5]: > 100 µM
TGI [6]: > 100 µM
TGI [7]: > 100 µM
TGI [8]: > 100 µM
TGI [9]: > 100 µM
TGI [10]: > 100 µM

COc1cc(/C=C/C(=O)CC(=O)/C=C/c2cc(C)c(O)c(OC)c2)cc(C)c1O
TGI [1]: > 100 µM
TGI [2]: > 100 µM
TGI [3]: > 100 µM
TGI [4]: > 100 µM
TGI [5]: > 100 µM
TGI [6]: > 100 µM
TGI [7]: > 100 µM
TGI [8]: > 100 µM
TGI [9]: > 100 µM
TGI [10]: > 100 µM

Cc1cc(=O)[nH]c2cc(NC(=O)C(C)NC(=O)C(C)NC(=O)C(C)NC(=O)OC(C)(C)C)ccc12 (stereo not given)
TGI [1]: > 15 µM
TGI [2]: > 15 µM
TGI [3]: > 15 µM
TGI [4]: > 15 µM
TGI [5]: > 15 µM
TGI [6]: > 15 µM
TGI [7]: > 15 µM
TGI [8]: > 15 µM
TGI [9]: > 15 µM
TGI [10]: > 15 µM

Nc1cc(C2CCCc3c2[nH]c2ccccc32)ccc1O (stereo not given)
TGI [1]: > 100 µM
TGI [2]: > 100 µM
TGI [3]: > 100 µM
TGI [4]: > 100 µM
TGI [5]: 50.3 µM
TGI [6]: > 100 µM
TGI [7]: > 100 µM
TGI [8]: > 100 µM
TGI [9]: > 100 µM
TGI [10]: > 100 µM

N=c1oc2cc(O)ccc2cc1C(=O)Nc1ccccn1
TGI [1]: > 100 µM
TGI [2]: > 100 µM
TGI [3]: > 100 µM
TGI [4]: > 100 µM
TGI [5]: > 100 µM
TGI [6]: > 100 µM
TGI [7]: > 100 µM
TGI [8]: > 100 µM
TGI [9]: > 100 µM
TGI [10]: > 100 µM

COc1ccc(SCc2cc(OC)ccc2OC)cc1
TGI [1]: > 100 µM
TGI [2]: 98.9 µM
TGI [3]: > 100 µM
TGI [4]: > 100 µM
TGI [5]: > 100 µM
TGI [6]: > 100 µM
TGI [7]: 94.3 µM
TGI [8]: > 100 µM
TGI [9]: 97.7 µM
TGI [10]: > 100 µM

O=S1(=O)OCCOS(=O)(=O)C1(F)Cc1ccccc1
TGI [1]: > 100 µM
TGI [2]: > 100 µM
TGI [3]: > 100 µM
TGI [4]: > 100 µM
TGI [5]: > 100 µM
TGI [6]: > 100 µM
TGI [7]: > 100 µM
TGI [8]: > 100 µM
TGI [9]: > 100 µM
TGI [10]: > 100 µM
